According to US7708999B2, “Remedies for arthritis” (Kyowa Hakko Kirin Co., Ltd., priority 2001, dated 2010):

T1: FGF-8 (Homo sapiens, UniProt P55075)
T1 construct: purchased R & D
T1 sequence (P55075 23-215 isoform P55075-3 limits assumed): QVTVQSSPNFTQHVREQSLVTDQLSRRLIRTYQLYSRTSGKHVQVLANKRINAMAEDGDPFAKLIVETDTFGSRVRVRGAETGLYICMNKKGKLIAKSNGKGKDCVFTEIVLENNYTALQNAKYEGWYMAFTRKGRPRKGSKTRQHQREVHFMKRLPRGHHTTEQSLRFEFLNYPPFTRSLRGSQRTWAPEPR

B1: HV0LV0: YB2/0 cell-derived anti-FGF-8 neutralizing CDR-grafted antibody, VH HV.0 (SEQ ID NO. 18), VL LV.0 (SEQ ID NO. 19) (antibody, V domains shown)
VH: QVQLVQSGAEVKKPGASVKVSCKASGYTFTDYYLNWVRQAPGQGLEWMGEIDPGSDSIYYNENLEGRVTITADTSTSTAYMELSSLRSEDTAVYYCARYGYSRYDVRFVYWGQGTLVTVSS
VL: DIVMTQSPLSLPVTPGEPASISCRSSQSLVHSNGRTYLEWYLQKPGQSPQLLIYKVSNRISGVPDRFSGSGSGTDFTLKISRVEAEDVGVYYCFQGSHVPYTFGQGTKVEIK
modifications: HV.0, a designed amino acid sequence of VH of an anti-FGF-8 CDR-grafted neutralizing antibody; LV.0, a designed amino acid sequence of VL of an anti-FGF-8 CDR-grafted neutralizing antibody
B2: HV6LV6: YB2/0 cell-derived anti-FGF-8 neutralizing CDR-grafted antibody, VH HV.6 (SEQ ID NO. 20), VL LV.6 (SEQ ID NO. 21) (antibody, V domains shown)
VH: QVQLVQSGAEVARPGASVKVSCKASGYTFTDYYLNWVRQRSGQGLEWIGEIDPGSDSIYYNENLEGRVTITADTSTSTAYMELSSLRSEDTAVYFCARYGYSRYDVRFVYWGQGTLVTVSS
VL: DVVMTQSPLSLPVSLGEPASISCRSSQSLVHSNGRTYLEWYLQKPGQSPKVLIYKVSNRISGVPDRFSGSGSGTDFTLKISRVEAEDVGVYFCFQGSHVPYTFGQGTKVEIK
modifications: HV.6, a designed amino acid sequence of VH of an anti-FGF-8 CDR-grafted neutralizing antibody; LV.6, a designed amino acid sequence of VL of an anti-FGF-8 CDR-grafted neutralizing antibody

Assays:
[1] = tested on: mouse collagen-induced arthritis model; test: Mouse collagen-induced arthritis model; type: in vivo; conditions: positive control, 0.3 mg/mL, 1 mL per 100 g orally
Protocol: The mouse collagen-induced arthritis model was prepared in the following manner according to the method of Kamada et al., (Kamada H. et al., Jpn. J. Pharmacol., 70, 169-175, 1996) using DBA/1J mice (male, 7 weeks old, Japan Charles River).
A bovine cartilage-derived type II collagen solution (manufactured by Collagen Gijutsu Kenshu) was mixed with a Freund's complete adjuvant (manufactured by Iatron) under ice cooling to form an emulsion which was adjusted such that the final concentration of the type II collagen became 1.5 mg/mL. The emulsion was intradermally injected in amount of 100 μL at the base of the tail of the mouse for sensitization. Twenty-one days later, the additional immunization was performed in the same manner. One group consisted of 10 mice. Anti-FGF-8 neutralizing antibody KM1334 was dissolved in a saline (manufactured by Otsuka Seiyaku Kojo) to a final concentration of 2 mg/mL, and the solution was intraperitoneally administered to a KM1334 administrated group at a dose of 200 μL for each mouse once a day on days 21, 25, 28, 32, 35 and 39 from the initial sensitization of the mouse collagen-induced arthritis model. […] The change with time of edemas of all limbs in collagen-induced arthritis was evaluated by the scoring from 0 to 4 in each limb to a total of 16 at the maximum score in all limbs. […]

[2] = tested on: rat adjuvant arthritis model; test: Rat adjuvant arthritis model; type: in vivo
Protocol: The rat adjuvant arthritis model was performed in the following manner according to the method of Pearson et al. (Pearson CM. et al., Arthritis Rheum., 5, 654-658, 1962) using Lewis rats (female, 8 weeks old, Japan Charles River).
Mycobacterium butyricum (manufactured by Difco) was suspended in a liquid paraffin (manufactured by Wako Pure Chemical Industries, Ltd.) to a final concentration of 6 mg/mL, and sterilized with a autoclave. The resulting solution was intradermally injected into the rat right hind pad in an amount of 100 μL for sensitization. One group consisted of 8 to 10 rats. Anti-FGF-8 neutralizing antibody KM1334 was dissolved in saline to a final concentration of 2 mg/mL. The solution was intraperitoneally administered to a KM1334 administrated group once a day at a dose of 0.5 mL per 100 g of the body weight for each rat on the sensitization day of the rat adjuvant arthritis model and on days 3, 7, 10, 14 and 17 from the sensitization. To saline administrated group, only saline was intraperitoneally administered instead of the anti-FGF-8 neutralizing antibody KM1334 solution. Further, sodium diclofenac, an antiinflammatory agent, was dissolved in a 0.5 w/v % methyl cellulose solution to a final concentration of 0.3 mg/mL, and the solution was orally administered to a sodium diclofenac administrated group as a positive control once a day at a dose of 1 mL per 100 g of the body weight on days 4, 7 to 11 and 14 to 18 from the adjuvant sensitization day. 50 mg of methotrexate® for injection (manufactured by Wyeth Japan) as a metabolic antagonist was dissolved in a 0.5 w/v % methyl cellulose solution to a final concentration of 0.01 mg/mL, and the solution was administered to a methotrexate administrated group in the same manner as in the sodium diclofenac administrated group. Prednisolone (manufactured by Sigma-Aldrich), a steroidal agent, was suspended in a 0.5 w/v % methyl cellulose solution to a final concentration of 0.3 mg/mL, and the suspension was administered to a prednisolone administrated group in the same manner as in the sodium diclofenac administrated group. Further, a 0.5 w/v % methyl cellulose solution alone was orally administered to a solvent administrated group in the same manner. An untreated group was used, and it was not subjected to sensitization with Mycobacterium butyricum and administration of an agent. The volumes of the adjuvant-treated paw and the adjuvant-untreated paw were measured as time goes by using a device for measuring edemas of rat hind paw (TK-101, manufactured by Unicom).
Using urine collected for 24 hours at day 20 and day 21 after the sensitization, the amounts of glycosaminoglycan, deoxypyridinoline, hydroxyproline and creatinine in urine were measured. The amount of glycosaminoglycan in urine was measured by the DMMB method described in Example 1. The amount of hydroxyproline in urine was measured by the method of Ikeda et al. (Ikeda Shingo et al., Tokyo Eiken Nenpo, 36 277-282, 1985). That is, 0.8 mL of hydrochloric acid for amino acid analysis (manufactured by Kanto Kagaku) was added to 0.8 mL of urine to hydrolyze at 110° C. for 15 hours. To 0.5 mL of the hydrolyzed sample was added 2 mL of a 1.2 mol/L sodium hydroxide solution for neutralization. 1 mL of isopropanol was added to 0.5 mL of the neutralized sample, and 1 ml of an oxidant solution was added. The mixture was stirred well, and allowed to stand at room temperature for 5 minutes. […]

[3] = biological target: T1, FGF-8; test: FGF-8 binding activity by BIAcore 2000, immobilized FGF-8; conditions: antibody 50 μg/mL; FGF-8 immobilized 4498 RU
Protocol: In order to examine the FGF-8 binding activity of the various anti-FGF-8 neutralizing CDR-grafted antibodies obtained in 4. of Reference Example 2 in more detail, the FGF-8 binding activity of the various anti-FGF-8 neutralizing CDR-grafted antibodies was measured and compared in the following manner using BIAcore2000 (manufactured by BIACORE). The YB2/0 cell-derived anti-FGF-8 neutralizing chimeric antibody KM3334 obtained in 3.(2) of Reference Example 1 was used as a positive control.
HBS-EP (manufactured by BIACORE) was used hereinafter as a sample diluent and a buffer during measurement. First, Sensor Chip CM5 (manufactured by BIACORE) was installed, and FGF-8 (manufactured by R & D) dissolved in 31.25 μg/mL of 10 mmol/L acetate buffer solution (pH 4.0) was immobilized on the surface of the sensor chip by the amine coupling method. The immobilization amount measured by using a resonance signal (RU) as an index was 4498 RU.
60 μL of each of the antibody solutions was added to an FGF-8 immobilized flow cell at a flow rate of 20 μL/min, and the dissociation reaction was then monitored for 3 minutes. After the dissociation reaction, 20 μL of a 10 mmol/L glycine-hydrochloride solution (pH 1.5) was added to the flow cell twice continuously to regenerate the surface of the chip. This cycle was performed with the antibody solution at various concentrations (from 50 to 0.068 μg/mL) to obtain sensor grams at various concentrations. The sensor grams of the respective antibodies were converted to sensor grams of specific reactions by deducing a sensor gram obtained using chimeric antibody KM871 (Shitara K. et al., Cancer Immunol. Immunother., 36, 373-380, 1993) to GD3 as a negative control. […] Accordingly, the binding activity of the various antibodies was compared in terms of the binding [resonance signal (RU)] in the binding reaction. […] The effect of restoring the binding activity was not observed in the 6 amino acid residues of FR of VH.

Molecule	degree of the inhibition of the arthritic score compared with the KM1334 administrated group [1]	Bone destruction score ([2]; Table 2, soft X-ray of calcaneus, adjuvant-untreated paw, day 21, maximum 5, mean ± standard error, oral comparators)	Bone destruction score (% inhibition) ([2]; Table 2, vs solvent group)	inhibition of the increase in paw volume, adjuvant-untreated paw ([2]; day 21, oral, 1 mL per 100 g: sodium diclofenac 0.3 mg/mL, methotrexate 0.01 mg/mL, prednisolone 0.3 mg/mL, vs solvent group)	inhibition of the increase (decrease) in amount of glycosaminoglycan in urine ([2]; urine day 20 to 21, oral comparators vs solvent group, diclofenac and prednisolone not significant)	inhibition of the increase (decrease) in amount of deoxypyridinoline in urine ([2]; urine day 20 to 21, oral comparators vs solvent group, methotrexate and prednisolone not significant)	binding reaction [resonance signal (RU)] [3]
O=C(O)Cc1ccccc1Nc1c(Cl)cccc1Cl [sodium diclofenac]	the same	3.1 ± 0.6	33%	45%	40%	88%	–
B1	–	–	–	–	–	–	slightly low in comparison to KM3334 and HV0LV6
B2	–	–	–	–	–	–	slightly low in comparison to KM3334 and HV0LV6
